We go through two compounds from US20250360166A1, “Cisplatin particles and uses thereof” (CRITITECH, INC., priority 2021, published 2025).

Molecules are shown by their SMILES.

The test system of one series is H69 tumor cells. The series is described as follows: SCP-Cisplatin pilot study, subcutaneous H69 tumor in NCr nu/nu mice, single intra-tumoral injection. Format: in vivo. The method, then: 55 CR female NCr nu/nu mice 8-12 weeks of age at start date were injected subcutaneously in the flank with 1×10^7 H69 tumor cells in 50% Matrigel; cell injection volume was 0.1 mL/mouse. A pair match was performed when tumors reach an average size of 100-150 mm^3, after which treatment was initiated as detailed in Table 2.
Tumor cells implanted on Day 0 and treatments initiated on Day 18 (Mean TV=126 mm^3). There were 5 treatment groups (n=5/group); all receiving IT injections =25 uL; 27G needle. The IT vehicle group was administered ethanol/glycerin/water. Animals were sacrificed at humane endpoint of TV=2000 mm^3 or Study Day 51.

The nature of series [1]: Particle size distribution by laser diffraction (Malvern Mastersizer 3000, Hydro MV). It counts as physicochemical. The conditions noted are these: dispersed in ethyl acetate. The method, then: Particle size analyses were conducted on a Malvern Mastersizer™ 3000 using the Hydro MV dispersion unit. A non-validated general PSD method/dispersant method was used to analyze the cisplatin samples. The sample preparation procedure performed was as follows: Weigh 10 to 20 mg of cisplatin into a 30-mL vial, add 20 mL of ethyl acetate. Disperse the sample by vortexing then sonicating the suspension in an ultrasonic bath for 1 minute. Then transfer the sample suspension to the Malvern Hydro MV dispersion unit to obtain obscuration between 5 and 15%.

Series [2] is described as follows: Specific surface area by BET sorptometry. It counts as physicochemical. The text has this:
The BET specific surface area test procedure is a compendial method included in both the United States Pharmaceopeia and the European Pharmaceopeia.

A short description of series [3]: Bulk density (10 mL graduated cylinder, modified USP <616> Method I). It counts as physicochemical. The conditions noted are these: not tapped.
Experimental: As used herein, the bulk density of the cisplatin particles is the mass of the totality of particles in the composition divided by the total volume they occupy when poured into a graduated cylinder and not tapped. The total volume includes particle volume, inter-particle void volume, and internal pore volume.
Bulk density analyses were conducted using a 10 mL graduated cylinder due to low sample volume.

In the case of `N.N.[Cl][Pt][Cl]` [Cisplatin], the “tumor volume of surviving animals on Day 51” value with H69 tumor cells (25 μg/animal intra-tumoral qd × 1) is recorded as “increasing tumor volume”. Also, the “animals survived on Day 51” value in the series with H69 tumor cells (25 μg/animal intra-tumoral qd × 1, n=5, endpoint TV=2000 mm^3 or Day 51) was 3 of 5.
Regarding `N.N.[Cl][Pt][Cl]` [Raw, Cisplatin], in series [1], the “PSD-Master sizer Dv10” value is listed as 1.72 μm, the “PSD-Master sizer Dv50” value is recorded as 10.9 μm and the “PSD-Master sizer Dv90” value is listed as 25.9 μm. In series [2], the “Surface Area” value came out at 2.44 m^2/g. The “Bulk Density” value in series [3] is recorded as 1.01 g/mL.
